Biological target: Mitogen-activated protein kinase 1 (Mus musculus, UniProt P63085)
Assay: TdF (Temperature Dependence Fluorescence) Assay: The SAR (Structure Activity Relationship) for ERK ligands covered by this invention was interrogated using the TdF (Temperature Dependence Fluorescence) assay or best known as thermal shift assay. (M. W. Pantoliano, et al., "High-density miniaturized thermal shift assays as a general strategy for drug discovery," J. Biomol. Screen 6 (2001) 429-440) The TdF assay was mainly conducted in the 96-well based CHROMO-4 real time fluorescence plate reader (BioRad). The Sypro Orange (Sigma-Aldrich), environmentally sensitive fluorescence dye, was used to monitor the protein folding-unfolding transition. Protein-ligand binding was gauged by the change (or shift) in the unfolding transition temperature (ΔTm) acquired at protein alone with respect to protein in the presence of ligand of interest.Compound of interest was first prepared in DMSO stock (typical concentration: 10 mM). […] Final percentage of DMSO resided in the sample was 2%. The sample plate was heated from 30° C. to 90° C. with thermal ramping rate of 1° C./min.

Chain of Mitogen-activated protein kinase 1 (P63085 whole entry): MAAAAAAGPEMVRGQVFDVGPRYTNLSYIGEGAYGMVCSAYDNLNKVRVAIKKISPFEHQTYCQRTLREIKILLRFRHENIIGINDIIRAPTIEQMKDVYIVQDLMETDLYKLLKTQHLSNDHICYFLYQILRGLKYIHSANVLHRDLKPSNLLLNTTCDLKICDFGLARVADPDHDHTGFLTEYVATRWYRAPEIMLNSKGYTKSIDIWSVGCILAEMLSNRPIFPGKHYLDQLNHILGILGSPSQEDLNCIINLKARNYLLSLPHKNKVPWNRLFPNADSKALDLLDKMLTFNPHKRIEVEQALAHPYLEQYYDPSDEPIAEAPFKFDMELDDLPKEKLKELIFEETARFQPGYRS

`O=C(N[C@H]1CNC[C@@H]1c1ccccc1)N1CCc2[nH]nc(-c3ccncc3)c2C1` (racemic) was tested, and the Kd was 6 nM.

— ChEMBL document CHEMBL3886489, “Fused pyrazole derivatives as novel ERK inhibitors” (2016)
